From ChEMBL document CHEMBL3885881, “DrugMatrix”

Species: Rattus norvegicus
Assay: DrugMatrix - Regimen: Daily Repeat
Type: toxicity, organism-based, Sprague-Dawley
Design: regimen Daily Repeat, gender Male, age 6-8 weeks
Conditions: in vivo, po, route oral GAVAGE, […]; for ABSOLUTE BASOPHIL / BASOPHIL / ABSOLUTE EOSINOPHIL / ABSOLUTE LYMPHOCYTE / ABSOLUTE MONOCYTE / ABSOLUTE SEGMENTED NEUTROPHIL / EOSINOPHIL / ERYTHROCYTE COUNT / HEMATOCRIT / HEMOGLOBIN / LEUKOCYTE COUNT / LYMPHOCYTE / MEAN CORPUSCULAR HEMOGLOBIN / MEAN CORPUSCULAR HEMOGLOBIN CONCENTRATION / MEAN CORPUSCULAR VOLUME / MONOCYTE / NEUTROPHIL / NUCLEATED RED BLOOD CELLS / PLATELET COUNT: tissue Blood; for ALANINE AMINOTRANSFERASE / ALBUMIN / ALKALINE PHOSPHATASE / ASPARTATE AMINOTRANSFERASE / BLOOD UREA NITROGEN / CARBON DIOXIDE / CHLORIDE / CHOLESTEROL / CREATINE PHOSPHOKINASE / CREATININE / GLUCOSE / LACTATE DEHYDROGENASE / LIPASE / PHOSPHORUS / POTASSIUM / SODIUM / TOTAL BILIRUBIN / TOTAL PROTEIN / URIC ACID: tissue Plasma
[1] = 0 mg/kg, 72 h, dose level Control, time 3 day
[2] = 0 mg/kg, 120 h, dose level Control, time 5 day
[3] = 4 mg/kg, 72 h, dose level Low, time 3 day
[4] = 4 mg/kg, 120 h, dose level Low, time 5 day
[5] = 16 mg/kg, 72 h, dose level High, time 3 day
[6] = 16 mg/kg, 120 h, dose level High, time 5 day

For O=NN(CCCl)C(=O)NCCCl [CARMUSTINE], the “ABSOLUTE BASOPHIL” value [1] was 0 CELLS/uL, the BASOPHIL [1] was 0% and the “ABSOLUTE BASOPHIL” value [2] was 0 CELLS/uL. For the same compound, the “ABSOLUTE EOSINOPHIL” value [2] was 0 CELLS/uL, the “ABSOLUTE LYMPHOCYTE” value [2] was 10431 CELLS/uL and the “ABSOLUTE MONOCYTE” value [2] was 90.5 CELLS/uL. The “ABSOLUTE SEGMENTED NEUTROPHIL” value [2] was 1111.83 CELLS/uL, the BASOPHIL [2] was 0% and the EOSINOPHIL [2] was 0%. The “ERYTHROCYTE COUNT” value [2] was 5.51 x10E6/uL, the HEMATOCRIT [2] was 34.67% and the HEMOGLOBIN [2] was 13.5 G/DL. The “LEUKOCYTE COUNT” value [2] was 11.63 x10E3/uL, the LYMPHOCYTE [2] was 89.67% and the “MEAN CORPUSCULAR HEMOGLOBIN” value [2] was 24.5 pg. For the same compound, the “MEAN CORPUSCULAR HEMOGLOBIN CONCENTRATION” value [2] was 38.95 G/DL, the “MEAN CORPUSCULAR VOLUME” value [2] was 62.87 fL and the MONOCYTE [2] was 0.67%. The NEUTROPHIL [2] was 9.67%, the “NUCLEATED RED BLOOD CELLS” value [2] was 0 /100WBC and the “PLATELET COUNT” value [2] was 1052.67 x10E3/uL. The “ALANINE AMINOTRANSFERASE” value [2] was 54.67 u/L, the ALBUMIN [2] was 4.15 G/DL and the “ALKALINE PHOSPHATASE” value [2] was 359.83 u/L. For the same compound, the “ASPARTATE AMINOTRANSFERASE” value [2] was 83 u/L, the “BLOOD UREA NITROGEN” value [2] was 13.5 mg/dL and the “CARBON DIOXIDE” value [2] was 27.17 mmol/L. The CHLORIDE [2] was 98.5 MEQ/L, the CHOLESTEROL [2] was 66.83 mg/dL and the “CREATINE PHOSPHOKINASE” value [2] was 256.17 u/L. The CREATININE [2] was 0.19 mg/dL, the GLUCOSE [2] was 171.33 mg/dL and the “LACTATE DEHYDROGENASE” value [2] was 91.5 u/L. It also gave an LIPASE [2] of 10.5 u/L, a PHOSPHORUS [2] of 8.72 mg/dL and a POTASSIUM [2] of 5.34 MEQ/L. The SODIUM [2] was 142.53 MEQ/L, the “TOTAL BILIRUBIN” value [2] was 0.2 mg/dL and the “TOTAL PROTEIN” value [2] was 6.05 G/DL. For the same compound, the “URIC ACID” value [2] was 0.6 mg/dL, the “ABSOLUTE BASOPHIL” value [3] was 0 CELLS/uL and the “ABSOLUTE EOSINOPHIL” value [3] was 0 CELLS/uL. The “ABSOLUTE LYMPHOCYTE” value [3] was 4876.33 CELLS/uL, the “ABSOLUTE MONOCYTE” value [3] was 48 CELLS/uL and the “ABSOLUTE SEGMENTED NEUTROPHIL” value [3] was 442.33 CELLS/uL. The BASOPHIL [3] was 0%, the EOSINOPHIL [3] was 0% and the “ERYTHROCYTE COUNT” value [3] was 5.3 x10E6/uL. For the same compound, the HEMATOCRIT [3] was 33.47%, the HEMOGLOBIN [3] was 13.1 G/DL and the “LEUKOCYTE COUNT” value [3] was 5.37 x10E3/uL. The LYMPHOCYTE [3] was 90.67%, the “MEAN CORPUSCULAR HEMOGLOBIN” value [3] was 24.7 pg and the “MEAN CORPUSCULAR HEMOGLOBIN CONCENTRATION” value [3] was 39.13 G/DL. For the same compound, the “MEAN CORPUSCULAR VOLUME” value [3] was 63.13 fL, the MONOCYTE [3] was 1% and the NEUTROPHIL [3] was 8.33%. The “NUCLEATED RED BLOOD CELLS” value [3] was 0 /100WBC, the “PLATELET COUNT” value [3] was 1176.67 x10E3/uL and the “ALANINE AMINOTRANSFERASE” value [3] was 69.33 u/L. The ALBUMIN [3] was 4.2 G/DL, the “ALKALINE PHOSPHATASE” value [3] was 310 u/L and the “ASPARTATE AMINOTRANSFERASE” value [3] was 124.67 u/L. The “BLOOD UREA NITROGEN” value [3] was 8.33 mg/dL, the “CARBON DIOXIDE” value [3] was 31.67 mmol/L and the CHLORIDE [3] was 102 MEQ/L. For the same compound, the CHOLESTEROL [3] was 70 mg/dL, the “CREATINE PHOSPHOKINASE” value [3] was 196 u/L and the CREATININE [3] was 0.11 mg/dL. The GLUCOSE [3] was 149.33 mg/dL, the “LACTATE DEHYDROGENASE” value [3] was 75.67 u/L and the LIPASE [3] was 45 u/L. The PHOSPHORUS [3] was 9.8 mg/dL, the POTASSIUM [3] was 5.86 MEQ/L and the SODIUM [3] was 147.15 MEQ/L. The “TOTAL BILIRUBIN” value [3] was 0.2 mg/dL, the “TOTAL PROTEIN” value [3] was 5.6 G/DL and the “URIC ACID” value [3] was 0.47 mg/dL. The “ABSOLUTE BASOPHIL” value [4] was 0 CELLS/uL, the “ABSOLUTE EOSINOPHIL” value [4] was 0 CELLS/uL and the “ABSOLUTE LYMPHOCYTE” value [4] was 3763.67 CELLS/uL. The “ABSOLUTE MONOCYTE” value [4] was 27 CELLS/uL, the “ABSOLUTE SEGMENTED NEUTROPHIL” value [4] was 142.67 CELLS/uL and the BASOPHIL [4] was 0%. For the same compound, the EOSINOPHIL [4] was 0%, the “ERYTHROCYTE COUNT” value [4] was 5.76 x10E6/uL and the HEMATOCRIT [4] was 35.3%. For the same compound, the HEMOGLOBIN [4] was 13.53 G/DL, the “LEUKOCYTE COUNT” value [4] was 3.93 x10E3/uL and the LYMPHOCYTE [4] was 95.67%. The “MEAN CORPUSCULAR HEMOGLOBIN” value [4] was 23.5 pg, the “MEAN CORPUSCULAR HEMOGLOBIN CONCENTRATION” value [4] was 38.33 G/DL and the “MEAN CORPUSCULAR VOLUME” value [4] was 61.27 fL. For the same compound, the MONOCYTE [4] was 0.67%, the NEUTROPHIL [4] was 3.67% and the “NUCLEATED RED BLOOD CELLS” value [4] was 0 /100WBC. For the same compound, the “PLATELET COUNT” value [4] was 1079.33 x10E3/uL, the “ALANINE AMINOTRANSFERASE” value [4] was 65 u/L and the ALBUMIN [4] was 4.4 G/DL. For the same compound, the “ALKALINE PHOSPHATASE” value [4] was 287.67 u/L, the “ASPARTATE AMINOTRANSFERASE” value [4] was 91.67 u/L and the “BLOOD UREA NITROGEN” value [4] was 10 mg/dL. The “CARBON DIOXIDE” value [4] was 27.67 mmol/L, the CHLORIDE [4] was 101.33 MEQ/L and the CHOLESTEROL [4] was 66.67 mg/dL. The “CREATINE PHOSPHOKINASE” value [4] was 256.67 u/L, the CREATININE [4] was 0.22 mg/dL and the GLUCOSE [4] was 159.33 mg/dL. For the same compound, the “LACTATE DEHYDROGENASE” value [4] was 67.33 u/L, the LIPASE [4] was 10.67 u/L and the PHOSPHORUS [4] was 8.57 mg/dL. For the same compound, the POTASSIUM [4] was 5.14 MEQ/L, the SODIUM [4] was 148.03 MEQ/L and the “TOTAL BILIRUBIN” value [4] was 0.13 mg/dL. The “TOTAL PROTEIN” value [4] was 6.3 G/DL, the “URIC ACID” value [4] was 0.57 mg/dL and the “ABSOLUTE BASOPHIL” value [5] was 0 CELLS/uL. For the same compound, the “ABSOLUTE EOSINOPHIL” value [5] was 0 CELLS/uL, the BASOPHIL [5] was 0% and the EOSINOPHIL [5] was 0%. For the same compound, the “TOTAL PROTEIN” value [5] was 11.13 G/DL, the “ABSOLUTE BASOPHIL” value [6] was 0 CELLS/uL and the “ABSOLUTE EOSINOPHIL” value [6] was 9 CELLS/uL. For the same compound, the “ABSOLUTE LYMPHOCYTE” value [6] was 2345.67 CELLS/uL, the “ABSOLUTE MONOCYTE” value [6] was 24.67 CELLS/uL and the “ABSOLUTE SEGMENTED NEUTROPHIL” value [6] was 87.33 CELLS/uL. The BASOPHIL [6] was 0%, the EOSINOPHIL [6] was 0.33% and the “ERYTHROCYTE COUNT” value [6] was 6.17 x10E6/uL. The HEMATOCRIT [6] was 38.6%, the HEMOGLOBIN [6] was 14.23 G/DL and the “LEUKOCYTE COUNT” value [6] was 2.47 x10E3/uL. The LYMPHOCYTE [6] was 95%, the “MEAN CORPUSCULAR HEMOGLOBIN” value [6] was 23.1 pg and the “MEAN CORPUSCULAR HEMOGLOBIN CONCENTRATION” value [6] was 36.93 G/DL. The “MEAN CORPUSCULAR VOLUME” value [6] was 62.57 fL, the MONOCYTE [6] was 1% and the NEUTROPHIL [6] was 3.67%. For the same compound, the “NUCLEATED RED BLOOD CELLS” value [6] was 0 /100WBC, the “PLATELET COUNT” value [6] was 1131 x10E3/uL and the “ALANINE AMINOTRANSFERASE” value [6] was 102 u/L. The ALBUMIN [6] was 3.93 G/DL, the “ALKALINE PHOSPHATASE” value [6] was 370.33 u/L and the “ASPARTATE AMINOTRANSFERASE” value [6] was 322 u/L. The “BLOOD UREA NITROGEN” value [6] was 8.33 mg/dL, the “CARBON DIOXIDE” value [6] was 27.67 mmol/L and the CHLORIDE [6] was 98 MEQ/L. The CHOLESTEROL [6] was 235 mg/dL, the “CREATINE PHOSPHOKINASE” value [6] was 236.67 u/L and the CREATININE [6] was 0.21 mg/dL. For the same compound, the GLUCOSE [6] was 146 mg/dL, the “LACTATE DEHYDROGENASE” value [6] was 165.33 u/L and the LIPASE [6] was 12 u/L. For the same compound, the PHOSPHORUS [6] was 9.6 mg/dL, the POTASSIUM [6] was 5.3 MEQ/L and the SODIUM [6] was 146.6 MEQ/L. The “TOTAL BILIRUBIN” value [6] was 1.73 mg/dL, the “TOTAL PROTEIN” value [6] was 6.4 G/DL and the “URIC ACID” value [6] was 0.6 mg/dL.
